Experiments:
[1] = PFAS levels in serum samples of airport employees (LC/MS/MS); conditions: for Serum level in the first samples, median (range) / Relative composition of PFAS in serum, weight basis / Relative composition of PFAS in serum, molar concentration basis / Serum concentration, molar basis / Serum concentration, weight basis: all 26 airport employees; for Relative composition of PFAS in serum, weight basis / Relative composition of PFAS in serum, molar concentration basis: first serum samples; for Serum concentration, molar basis / Serum concentration, weight basis: median of first serum samples; for Serum level, median (range): second to fifth samplings, 17 airport employees
Description: All 26 employees at the airport were invited for a blood sampling between 11 and 14 September 2018 (i.e., within 11 to 14 d after the termination of contaminated drinking-water exposure). Information on age, home address, employment history, working tasks, and sick leave and vacation days in August and September were collected by questionnaire. In addition, data on the number of glasses of water consumed per day, local fish consumption, and history of blood donation and medication were collected. For female employees, questions about menstruation, pregnancy, and duration of breast-feeding were asked.
The PFAS analysis in serum from the first sampling was immediately performed and personal results were reported to the employees. […] These 17 employees submitted four rounds of blood and first morning urine samples in parallel, at 1-month intervals. In total, there were five rounds of serum sampling (started from September) and four rounds of urine sampling (from October). For modeling of elimination, all samples were reanalyzed in a single batch. We obtained 83 serum samples with a median count of 5 (range: 4–5) samples per employee, and 59 urine samples with median of 4 (range: 1–4) samples per employee. Only one employee provided a single urine sample. The study was approved by the Regional Ethical Review Board in Lund, Sweden. All employees provided written informed consent.
Venous whole blood samples were obtained and were centrifuged for 10 min at 1,500×g at room temperature to isolate the serum on site. The serum samples were collected in 6-mL BD Vacutainer® Plus plastic serum tubes without gel (BD). Urine samples were collected in 13-mL polypropylene screw cap tubes (Sarstedt). Serum and urine samples were frozen at −20°C after sampling and transported to Lund using cold chain logistics. Serum and urine samples were stored at −80°C and −20°C , respectively, before analysis.
The serum samples, QC samples, and chemical blanks were prepared in 96-well plates with 1.5-mL flat-bottom glass vials (Biotech solutions). Serum samples were thawed for 1–2 h and mixed on a vortex shaker for approximately 10 s two times. Once after all samples were thawed and a second time before pipetting the serum to the plate. Before pipetting, the tip was pre-wetted several times, drawing a volume into the tip and dispensing it back into the tube. Sample preparation procedures for serum samples consisted of 25μL serum mixed with 25μL water, 25μL methanol, 25μL isotopically labeled internal standards in 50% acetonitrile (see Table S1), and 100μL acetonitrile. Thereafter, samples were mixed vigorous by shaking for 30 min and centrifuged at 2,600×g for 10 min at room temperature. The supernatant ( 0.2mL ) was transferred to 96-well plates with 0.5-mL conical glass vials (MicroLiter Analytical Supplies) and again centrifuged at 3,000×g for 10 min before analysis. The QC samples and chemical blanks were prepared following the same procedure as the serum samples. The calibration standards were prepared in FBS the same way as the samples, except for the addition of diluted reference standards of all analyzed compounds in 25μL of the methanol solution.
Aliquots of 4μL of the sample were analyzed using LC/MS/MS. For the analysis, a C18 column ( 4μm , 2.1mm i.d.×50mm , Genesis Lightning) was used prior to the injector to filter the mobile phases. The analytical column was an Aquity BEH ( 1.7μm , 2.1mm i.d.×100mm Waters). The mobile phases (A and B) were A: 5 mM ammonium acetate in water:methanol (50:50); and B: methanol. The mobile phase was kept at 0% B for 2.5 min after injection. A gradient was then applied over 11 min to 90% B, where it was then kept for 1.5 min. The column was then conditioned at 0% B for 2 min.

[2] = Background serum PFAS levels in reference population from Karlshamn; assay type: in vivo, human; conditions: reference group from Karlshamn without PFAS contamination in drinking water, N=58, sampled 2016
Description: For comparison with Swedish general background PFAS serum levels, we referred to the PFAS levels observed in a reference population from Karlshamn, a municipality in southern Sweden without PFAS contamination in the municipal drinking water. In 2016, 226 individuals were sampled. Fifty-nine individuals were randomly selected for analyzing other short-chain PFAS than the legacy ones, using the same modified method as for the airport employees. Fifty-eight individuals within the same age range as the airport employees (i.e., >22 years of age ) were included in the comparison. For a detailed description of this population see Li et al. ([2018]).

[3] = 1st sampling (September 2018), count 17
[4] = 2nd sampling (October 2018), count 17
[5] = 3rd sampling (November, 2018), count 17
[6] = 4th sampling (December 2018), count 16
[7] = 5th sampling (January 2019), count 16
[8] = employees participated in first blood sampling and repeated blood and urine sampling, N=17
[9] = employees participated in first blood sampling only, N=9, 11-14 d after end of exposure

| Compound | Serum PFAS level, 25 percentile [1, 3] | Serum PFAS level, 75 percentile [1, 3] | Serum PFAS level, Max [1, 3] | Serum PFAS level, Median [1, 3] | Serum PFAS level, Min [1, 3] | Serum PFAS level, 25 percentile [1, 4] | Serum PFAS level, 75 percentile [1, 4] | Serum PFAS level, Max [1, 4] | Serum PFAS level, Median [1, 4] | Serum PFAS level, Min [1, 4] | Serum PFAS level, 25 percentile [1, 5] | Serum PFAS level, 75 percentile [1, 5] | Serum PFAS level, Max [1, 5] | Serum PFAS level, Median [1, 5] | Serum PFAS level, Min [1, 5] | Serum PFAS level, 25 percentile [1, 6] | Serum PFAS level, 75 percentile [1, 6] | Serum PFAS level, Max [1, 6] | Serum PFAS level, Median [1, 6] | Serum PFAS level, Min [1, 6] | other results |
| --- | --- | --- | --- | --- | --- | --- | --- | --- | --- | --- | --- | --- | --- | --- | --- | --- | --- | --- | --- | --- | --- |
| O=S(=O)(O)C(F)(C(F)(F)F)C(F)(F)C(F)(F)C(F)(F)C(F)(F)C(F)(F)C(F)(F)F (stereo not drawn) [1m-PFOS, perfluoro-1-methylheptanesulfonate] | 0.48 | 1.8 | 4.1 | 1.0 | 0.32 | 0.54 | 1.4 | 4.0 | 0.89 | 0.26 | 0.54 | 1.5 | 4.4 | 0.88 | 0.24 | 0.47 | 1.3 | 4.3 | 0.91 | 0.24 | Serum PFAS level, 25 percentile [1, 7]: 0.51; Serum PFAS level, 75 percentile [1, 7]: 1.3; Serum PFAS level, Max [1, 7]: 4.5; Serum PFAS level, Median [1, 7]: 0.97; Serum PFAS level, Min [1, 7]: 0.26; PFAS in first serum sample, median (range) [1, 8]: 1.0 (0.32–4.1) ng/mL; PFAS in first serum sample, median (range) [1, 9]: 0.52 (0.25–2.7) ng/mL; Initial serum PFAS level, max ([1]; females (N=7)): 1.1 ng/mL; Initial serum PFAS level, median ([1]; females (N=7)): 0.58 ng/mL; Initial serum PFAS level, min ([1]; females (N=7)): 0.39 ng/mL; Initial serum PFAS level, Max ([1]; males (N=19)): 4.1 ng/mL; Initial serum PFAS level, Min ([1]; males (N=19)): 0.25 ng/mL; Initial serum PFAS level, median ([1]; males (N=19)): 1.1 ng/mL; PFAS serum level, median (range) [2]: 0.18 ( <LOD –0.59) ng/mL |
| O=S(=O)(O)C(F)(F)C(F)(F)C(F)(F)C(F)(F)C(F)(F)C(F)(F)C(F)(F)C(F)(F)F [L-PFOS, linear perfluorooctane sulfonic acid] | 7.7 | 15 | 28 | 11 | 5.5 | 7.6 | 16 | 24 | 10 | 4.1 | 7.3 | 16 | 23 | 11 | 4.7 | 7.4 | 14 | 24 | 9.8 | 4.4 | Serum PFAS level, 25 percentile [1, 7]: 9.1; Serum PFAS level, 75 percentile [1, 7]: 16; Serum PFAS level, Max [1, 7]: 23; Serum PFAS level, Median [1, 7]: 10; Serum PFAS level, Min [1, 7]: 4.5; Serum level in the first samples, median (range) [1]: 9.5 (5.4–28) ng/mL; PFAS in first serum sample, median (range) [1, 8]: 11 (5.5–28) ng/mL; PFAS in first serum sample, median (range) [1, 9]: 6.5 (5.4–13) ng/mL; Initial serum PFAS level, max ([1]; females (N=7)): 13 ng/mL; Initial serum PFAS level, median ([1]; females (N=7)): 9.3 ng/mL; Initial serum PFAS level, min ([1]; females (N=7)): 5.5 ng/mL; Relative composition of PFAS in serum, weight basis [1]: 8.6%; Relative composition of PFAS in serum, molar concentration basis ([1]; listed as PFOS (linear)): 7.0%; Initial serum PFAS level, Max ([1]; males (N=19)): 28 ng/mL; Initial serum PFAS level, Min ([1]; males (N=19)): 5.4 ng/mL; Initial serum PFAS level, median ([1]; males (N=19)): 10 ng/mL; Serum concentration, molar basis [1]: 0.019; Serum concentration, weight basis [1]: 9.5; Serum level, median (range) [1]: 10 (4.1–24) ng/mL; PFAS serum level, median (range) [2]: 3.0 (0.30–9.8) ng/mL |
| O=S(=O)(O)C(F)(F)C(F)(F)C(F)(F)C(F)(F)C(F)(F)F [PFPeS, perfluoropentane sulfonic acid] | 5.8 | 13 | 17 | 7.6 | 3.6 | 4.9 | 11 | 14 | 6.8 | 2.3 | 4.4 | 11 | 14 | 6.3 | 2.1 | 4.0 | 11 | 14 | 6.5 | 1.8 | Serum PFAS level, 25 percentile [1, 7]: 4.4; Serum PFAS level, 75 percentile [1, 7]: 9.9; Serum PFAS level, Max [1, 7]: 13; Serum PFAS level, Median [1, 7]: 6.2; Serum PFAS level, Min [1, 7]: 1.9; Serum level in the first samples, median (range) [1]: 6.9 (1.4–17) ng/mL; PFAS in first serum sample, median (range) [1, 8]: 7.6 (3.6–17) ng/mL; PFAS in first serum sample, median (range) [1, 9]: 3.5 (1.4–11) ng/mL; Serum level, median ([1]; exposed employees 5 months after exposure ceased): 6.22 ng/mL; Initial serum PFAS level, max ([1]; females (N=7)): 15 ng/mL; Initial serum PFAS level, median ([1]; females (N=7)): 5.1 ng/mL; Initial serum PFAS level, min ([1]; females (N=7)): 3.5 ng/mL; Relative composition of PFAS in serum, molar concentration basis [1]: 7.3%; Relative composition of PFAS in serum, weight basis [1]: 6.3%; Initial serum PFAS level, Max ([1]; males (N=19)): 17 ng/mL; Initial serum PFAS level, Min ([1]; males (N=19)): 1.4 ng/mL; Initial serum PFAS level, median ([1]; males (N=19)): 7.2 ng/mL; Serum concentration, molar basis [1]: 0.020; Serum concentration, weight basis [1]: 6.9; Serum level, median (range) [1]: 6.5 (1.8–14) ng/mL |

— PMC7351026, “Serum Half-Lives for Short- and Long-Chain Perfluoroalkyl Acids after Ceasing Exposure from Drinking Water Contaminated by Firefighting Foam” (Environmental Health Perspectives, 2020)
